Assay results as given in publication PMC3914206.

Legend:
Format in all cases: binding
panel of 442 kinases [1] = target: T1, panel of 442 kinases (Homo sapiens, UniProt P49137); conditions: Compound Concentration 10 µM
T1 construct: purchased KINOMEscan
Description: (§1) We assessed the selectivity of members of this scaffold using the KINOMEscan methodology across a near comprehensive panel of 442 kinases [[18,27]].

panel of 442 kinases [2] = target: T2, panel of 442 kinases (Homo sapiens, UniProt P00519, E255K); conditions: Compound Concentration 10 µM
T2 construct: purchased KINOMEscan
Description: as §1

panel of 442 kinases [3] = target: T3, panel of 442 kinases (Homo sapiens, UniProt Q9BXA7); conditions: kinase TSSK1B; compound concentration 10 µM
T3 construct: purchased KINOMEscan
T3 sequence (Q9BXA7 1-367): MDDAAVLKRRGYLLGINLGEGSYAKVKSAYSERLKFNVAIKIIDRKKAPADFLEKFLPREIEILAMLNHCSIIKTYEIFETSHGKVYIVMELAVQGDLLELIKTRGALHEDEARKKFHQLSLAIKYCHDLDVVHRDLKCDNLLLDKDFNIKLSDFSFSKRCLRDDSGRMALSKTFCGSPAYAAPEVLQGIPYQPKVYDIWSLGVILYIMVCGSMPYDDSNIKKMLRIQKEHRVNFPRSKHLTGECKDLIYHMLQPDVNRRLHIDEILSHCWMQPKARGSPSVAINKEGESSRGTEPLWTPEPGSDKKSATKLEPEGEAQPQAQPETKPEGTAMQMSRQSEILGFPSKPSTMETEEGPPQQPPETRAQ
Description: as §1

T2 sequence (P00519 whole entry E255K): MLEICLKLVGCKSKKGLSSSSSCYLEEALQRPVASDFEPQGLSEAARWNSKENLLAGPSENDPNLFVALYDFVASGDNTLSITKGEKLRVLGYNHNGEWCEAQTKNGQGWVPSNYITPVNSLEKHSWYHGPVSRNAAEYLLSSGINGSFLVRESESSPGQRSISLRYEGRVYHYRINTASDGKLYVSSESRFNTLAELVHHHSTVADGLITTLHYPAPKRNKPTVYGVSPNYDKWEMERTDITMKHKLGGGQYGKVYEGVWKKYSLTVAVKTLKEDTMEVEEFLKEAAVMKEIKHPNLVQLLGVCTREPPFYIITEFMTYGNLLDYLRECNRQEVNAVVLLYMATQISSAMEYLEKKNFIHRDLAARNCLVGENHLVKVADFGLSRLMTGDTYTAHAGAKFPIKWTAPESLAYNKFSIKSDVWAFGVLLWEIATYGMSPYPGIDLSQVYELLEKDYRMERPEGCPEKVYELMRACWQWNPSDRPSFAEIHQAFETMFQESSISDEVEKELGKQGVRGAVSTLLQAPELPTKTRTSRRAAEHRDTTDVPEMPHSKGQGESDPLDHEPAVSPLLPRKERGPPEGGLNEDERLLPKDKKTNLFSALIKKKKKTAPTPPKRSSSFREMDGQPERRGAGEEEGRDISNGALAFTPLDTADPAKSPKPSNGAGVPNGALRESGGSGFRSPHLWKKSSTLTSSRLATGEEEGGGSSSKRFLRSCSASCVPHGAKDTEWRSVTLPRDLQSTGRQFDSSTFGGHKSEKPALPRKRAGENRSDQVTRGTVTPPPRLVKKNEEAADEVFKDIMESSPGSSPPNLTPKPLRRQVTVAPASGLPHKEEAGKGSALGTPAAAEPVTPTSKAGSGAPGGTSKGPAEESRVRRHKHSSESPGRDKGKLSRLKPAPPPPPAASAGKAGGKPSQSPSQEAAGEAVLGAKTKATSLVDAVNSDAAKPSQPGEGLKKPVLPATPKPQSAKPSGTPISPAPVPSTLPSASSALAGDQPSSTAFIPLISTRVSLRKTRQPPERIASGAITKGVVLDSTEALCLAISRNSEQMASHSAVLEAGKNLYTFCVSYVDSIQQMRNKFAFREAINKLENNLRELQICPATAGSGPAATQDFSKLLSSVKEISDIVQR
T1 sequence (P49137 whole entry): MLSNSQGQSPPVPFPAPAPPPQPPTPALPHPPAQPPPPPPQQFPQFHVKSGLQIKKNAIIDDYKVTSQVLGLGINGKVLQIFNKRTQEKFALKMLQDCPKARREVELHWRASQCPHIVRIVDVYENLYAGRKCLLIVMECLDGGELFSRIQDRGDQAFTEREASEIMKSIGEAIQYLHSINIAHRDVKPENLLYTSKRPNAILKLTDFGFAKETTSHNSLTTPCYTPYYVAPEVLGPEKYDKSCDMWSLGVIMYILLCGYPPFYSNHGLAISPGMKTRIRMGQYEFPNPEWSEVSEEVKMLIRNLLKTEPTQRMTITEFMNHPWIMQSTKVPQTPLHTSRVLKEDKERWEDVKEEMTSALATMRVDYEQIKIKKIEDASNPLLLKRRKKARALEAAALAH

Q: Which “KINOMEscan: MAPKAPK2” value (panel of 442 kinases [1]) does the source give for COc1cc(C(=O)N2CCC(N3CCN(C)CC3)CC2)ccc1Nc1ncc2c(n1)N(C)c1ccccc1C(=O)N2C [15 (LRRK2-IN-1)] here?
A: 100

Q: What about the “KINOMEscan: ABL1(E255K)-phosphorylated” value (panel of 442 kinases [2]) of the same compound?
A: 80

Q: And the “% Ctrl, TSSK1B” value (panel of 442 kinases [3])?
A: 60 % Ctrl

Q: Which “% Ctrl, TSSK1B” value (panel of 442 kinases [3]) does the source give for COc1cc(C(=O)N2CCC(N3CCN(C)CC3)CC2)ccc1Nc1ncc2c(n1)N1CCc3cccc(c31)C(=O)N2C [Compound 24] here?
A: 61 % Ctrl

Q: Which “KINOMEscan: MAPKAPK2” value (panel of 442 kinases [1]) does the source give for COc1cc(C(=O)N2CCC(N3CCN(C)CC3)CC2)ccc1Nc1ncc2c(n1)N(C1CCCC1)c1ccccc1C(=O)N2C [Compound 25, 11-cyclopentyl-2-((2-methoxy-4-(4-(4-methylpiperazin-1-yl)piperidine-1-carbonyl)phenyl)amino)-5-methyl-5H-benzo[e]pyrimido[5,4-b][1,4]diazepin-6(11H)-one] here?
A: 100

Q: What about the “KINOMEscan: ABL1(E255K)-phosphorylated” value (panel of 442 kinases [2]) of the same compound?
A: 92

Q: And the “% Ctrl, TSSK1B” value (panel of 442 kinases [3])?
A: 90 % Ctrl

Q: What does the source list for CCOc1cc(C(=O)N2CCC(N3CCN(C)CC3)CC2)ccc1Nc1ncc2c(n1)N(C1CCCC1)c1ccccc1C(=O)N2C [Compound 26]?
A: KINOMEscan: MAPKAPK2 (panel of 442 kinases [1]): 100; KINOMEscan: ABL1(E255K)-phosphorylated (panel of 442 kinases [2]): 100; % Ctrl, TSSK1B (panel of 442 kinases [3]): 100 % Ctrl
